According to patent US8394969B2, “Cyclic benzimidazole derivatives useful as anti-diabetic agents” (Merck Sharp & Dohme Corp., priority 2008, dated 2013):
Counter-ions that a name gives are not always drawn.

Key:
ob/ob and db/db mice = conditions: following 8 weeks of administration; cited from earlier work
[1] = molecular target: recombinant human AMPK complex 1 (containing α1β1γ1) (Homo sapiens, UniProt Q13131+Q9Y478); assay: […] (in vitro AMPK activation assay); format: biochemical; conditions: recombinant human AMPK complex 1 (α1β1γ1); basal activity subtracted; read-out: % Maximum AMP Activation of human AMPK Complex 1
Chain of recombinant human AMPK complex 1 (containing α1β1γ1) (Q13131 whole entry): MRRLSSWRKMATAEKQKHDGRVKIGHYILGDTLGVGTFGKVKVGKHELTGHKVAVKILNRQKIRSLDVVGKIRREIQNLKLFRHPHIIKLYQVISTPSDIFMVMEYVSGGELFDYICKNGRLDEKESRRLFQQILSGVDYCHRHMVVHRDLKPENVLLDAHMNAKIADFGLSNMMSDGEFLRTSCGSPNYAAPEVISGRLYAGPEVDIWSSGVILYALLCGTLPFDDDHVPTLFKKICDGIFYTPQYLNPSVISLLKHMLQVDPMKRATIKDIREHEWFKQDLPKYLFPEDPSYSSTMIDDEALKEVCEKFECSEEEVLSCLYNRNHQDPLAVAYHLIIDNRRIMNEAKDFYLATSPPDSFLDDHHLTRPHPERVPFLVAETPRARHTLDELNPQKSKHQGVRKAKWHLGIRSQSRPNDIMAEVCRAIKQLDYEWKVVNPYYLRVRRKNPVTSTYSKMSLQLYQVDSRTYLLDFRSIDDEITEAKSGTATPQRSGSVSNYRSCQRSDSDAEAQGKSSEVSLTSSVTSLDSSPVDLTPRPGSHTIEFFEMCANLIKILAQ
Chain of recombinant human AMPK complex 1 (containing α1β1γ1) (Q9Y478 whole entry): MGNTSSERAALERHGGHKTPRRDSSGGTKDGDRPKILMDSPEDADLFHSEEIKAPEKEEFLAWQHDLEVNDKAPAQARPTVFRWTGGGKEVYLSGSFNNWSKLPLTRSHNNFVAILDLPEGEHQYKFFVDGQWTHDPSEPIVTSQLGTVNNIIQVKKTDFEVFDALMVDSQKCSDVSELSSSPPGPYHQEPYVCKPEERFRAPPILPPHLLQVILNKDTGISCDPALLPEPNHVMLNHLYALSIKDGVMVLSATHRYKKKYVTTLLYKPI
Chain of recombinant human AMPK complex 1 (containing α1β1γ1) (P54619 whole entry partner): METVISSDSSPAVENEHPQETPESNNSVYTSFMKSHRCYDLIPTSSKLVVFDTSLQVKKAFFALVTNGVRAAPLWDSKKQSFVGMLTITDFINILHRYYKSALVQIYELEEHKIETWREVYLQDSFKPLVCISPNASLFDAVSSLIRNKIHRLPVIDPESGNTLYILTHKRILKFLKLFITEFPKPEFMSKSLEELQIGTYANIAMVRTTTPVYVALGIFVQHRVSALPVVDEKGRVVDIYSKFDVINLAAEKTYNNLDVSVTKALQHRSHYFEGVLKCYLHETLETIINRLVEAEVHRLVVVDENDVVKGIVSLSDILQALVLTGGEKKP

NC(=O)c1ncn([C@@H]2O[C@H](CO)[C@@H](O)[C@H]2O)c1N [AICAR]
blood glucose reduction (ob/ob and db/db mice): 35%

Cc1ccc(Oc2nc3cc(-c4ccc5c(c4)CNC5)c(Cl)cc3[nH]2)cc1C(=O)O [Example 301, 5-[2-(3-carboxy-4-methylphenoxy)-6-chloro-1H-benzimidazol-5-yl]-2,3-dihydro-1H-isoindolium trifluoroacetate]
Emax [1]: > 80%

Cc1ccc(Oc2nc3cc(-c4ccc(-c5ccc(O)nc5)cc4)c(Cl)cc3[nH]2)cc1C(=O)O [Example 188, 5-({6-chloro-5-[4-(6-hydroxypyridin-3-yl)phenyl]-1H-benzimidazol-2-yl}oxy)-2-methylbenzoic acid]
Emax [1]: > 80%

Cc1ccc(Oc2nc3cc(-c4ccc(C5CCCCC5)cc4)c(Cl)cc3[nH]2)cc1C(=O)O [Example 357, 5-[6-Chloro-5-(4-cyclohexyl-phenyl)-1H-benzoimidazol-2-yloxy]-2-methyl-benzoic acid]
Emax [1]: > 80%

NS(=O)(=O)c1cccc(Oc2nc3cc(-c4ccc(-c5ccccc5)cc4)c(Cl)cc3[nH]2)c1 [Example 220, 3-(5-Biphenyl-4-yl-6-chloro-1H-benzoimidazol-2-yloxy)-benzenesulfonamide]
Emax [1]: > 80%

O=C(O)c1cncc(Oc2nc3cc(-c4ccc(-c5ccccc5)cc4)c(Cl)cc3[nH]2)c1 [Example 34, 5-(5-Biphenyl-4-yl-6-chloro-1H-benzoimidazol-2-yloxy)-nicotinic acid]
Emax [1]: > 80%

Cc1ccc(Oc2nc3cc(-c4cnn(C)c4)c(Cl)cc3[nH]2)cc1C(=O)O [Example 57, 5-[6-Chloro-5-(1-methyl-1H-pyrazol-4-yl)-1H-benzoimidazol-2-yloxy]-2-methyl-benzoic acid]
Emax [1]: > 80%
